Where a chain is given by its changes, count along the chain named.
Experiments:
[1] = biological target: T1, Lysosomal alpha-mannosidase (Homo sapiens) (UniProt O00754); experiment: Chaperone activity at Lysosomal alpha-mannosidase in wild-type human fibroblasts assessed as Lysosomal alpha-mannosidase activity at 20 uM using 4-methylumbelliferone alpha-D-mannopyranoside as a reporter substrate incubated for 4 days by fluorescence method relative to control
T1 sequence (whole entry): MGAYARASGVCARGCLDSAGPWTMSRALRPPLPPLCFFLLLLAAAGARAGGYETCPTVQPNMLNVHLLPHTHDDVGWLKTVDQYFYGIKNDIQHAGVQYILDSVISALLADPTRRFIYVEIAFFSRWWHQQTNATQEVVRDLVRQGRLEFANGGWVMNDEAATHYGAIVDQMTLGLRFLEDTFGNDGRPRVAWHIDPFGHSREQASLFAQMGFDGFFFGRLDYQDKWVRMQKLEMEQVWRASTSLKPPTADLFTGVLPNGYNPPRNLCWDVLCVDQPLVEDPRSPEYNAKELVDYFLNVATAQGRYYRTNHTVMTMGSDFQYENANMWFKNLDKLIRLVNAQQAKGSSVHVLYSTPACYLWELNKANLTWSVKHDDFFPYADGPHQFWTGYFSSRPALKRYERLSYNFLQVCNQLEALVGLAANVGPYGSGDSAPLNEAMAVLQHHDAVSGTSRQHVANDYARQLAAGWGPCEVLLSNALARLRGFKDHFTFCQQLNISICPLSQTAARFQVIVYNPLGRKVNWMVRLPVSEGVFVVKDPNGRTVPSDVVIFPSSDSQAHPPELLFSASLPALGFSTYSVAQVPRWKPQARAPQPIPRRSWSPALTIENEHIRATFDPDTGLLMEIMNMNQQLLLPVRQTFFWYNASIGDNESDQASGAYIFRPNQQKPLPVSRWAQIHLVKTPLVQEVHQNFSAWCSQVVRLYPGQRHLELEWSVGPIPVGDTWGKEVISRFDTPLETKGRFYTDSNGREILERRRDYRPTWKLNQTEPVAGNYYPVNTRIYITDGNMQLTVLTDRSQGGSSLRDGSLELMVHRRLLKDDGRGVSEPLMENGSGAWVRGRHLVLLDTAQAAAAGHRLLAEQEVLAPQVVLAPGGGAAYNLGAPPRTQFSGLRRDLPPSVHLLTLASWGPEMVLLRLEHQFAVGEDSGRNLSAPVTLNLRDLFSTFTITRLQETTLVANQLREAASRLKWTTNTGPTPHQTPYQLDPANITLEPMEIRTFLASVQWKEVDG

[2] = system: T2, Lysosomal alpha-mannosidase (Homo sapiens), O00754 [C55F]; experiment: Chaperone activity at human Lysosomal alpha-mannosidase C55F mutant transfected in human […] knockout HAP1 cells assessed as enzyme activity enhancement at 20 uM incubated for 96 hrs relative to control
T2 sequence (whole entry): T1 sequence (whole entry) with C55F

| Activity [2] [%] | Compound | Activity [1] [%] |
| --- | --- | --- |
|  | CO[C@@H]1[C@@H](OC)[C@H]2O[C@H]3[C@H](OC)[C@@H](OC)[C@@H](O[C@H]4[C@H](OC)[C@@H](OC)[C@@H](O[C@H]5[C@H](OC)[C@@H](OC)[C@@H](O[C@H]6[C@H](OC)[C@@H](OC)[C@@H](O[C@H]7[C@H](OC)[C@@H](OC)[C@@H](O[C@H]8[C@H](OC)[C@@H](OC)[C@@H](O[C@@H]1[C@@H](COCc1cn(CCCCCCN[C@@H]9[C@@H](O)[C@@H](O)[C@H](O)[C@H]%10COC(=O)N%109)nn1)O2)O[C@@H]8COCc1cn(CCCCCCN[C@@H]2[C@@H](O)[C@@H](O)[C@H](O)[C@H]8COC(=O)N82)nn1)O[C@@H]7COCc1cn(CCCCCCN[C@@H]2[C@@H](O)[C@@H](O)[C@H](O)[C@H]7COC(=O)N72)nn1)O[C@@H]6COCc1cn(CCCCCCN[C@@H]2[C@@H](O)[C@@H](O)[C@H](O)[C@H]6COC(=O)N62)nn1)O[C@@H]5COCc1cn(CCCCCCN[C@@H]2[C@@H](O)[C@@H](O)[C@H](O)[C@H]5COC(=O)N52)nn1)O[C@@H]4COCc1cn(CCCCCCN[C@@H]2[C@@H](O)[C@@H](O)[C@H](O)[C@H]4COC(=O)N42)nn1)O[C@@H]3COCc1cn(CCCCCCN[C@@H]2[C@@H](O)[C@@H](O)[C@H](O)[C@H]3COC(=O)N32)nn1 | 5 to 10 |
| 16 | COC[C@H]1O[C@@H]2O[C@H]3[C@H](OC)[C@@H](OC)[C@@H](O[C@H]4[C@H](OC)[C@@H](OC)[C@@H](O[C@H]5[C@H](OC)[C@@H](OC)[C@@H](O[C@H]6[C@H](OC)[C@@H](OC)[C@@H](O[C@H]7[C@H](OC)[C@@H](OC)[C@@H](O[C@H]8[C@H](OC)[C@@H](OC)[C@@H](O[C@H]1[C@H](OC)[C@H]2OC)O[C@@H]8COC)O[C@@H]7COC)O[C@@H]6COC)O[C@@H]5COCc1cn(CCCCCCN[C@@H]2[C@@H](O)[C@@H](O)[C@H](O)[C@H]5COC(=O)N52)nn1)O[C@@H]4COC)O[C@@H]3COC |  |
| 111 | CC(C)(C)OC(=O)NCCCCCCCCCN[C@@H]1[C@@H](O)[C@@H](O)[C@H](O)[C@H]2COC(=O)N21 |  |
